These results are taken from ChEMBL document CHEMBL5126606, “Sodium-Glucose Cotransporter Inhibitors as Antidiabetic Drugs: Current Development and Future Perspectives” (J Med Chem, 2022).

Series [1] addresses T1, Sodium/glucose cotransporter 1 (Homo sapiens, UniProt P13866).
T1 sequence (P13866 whole entry): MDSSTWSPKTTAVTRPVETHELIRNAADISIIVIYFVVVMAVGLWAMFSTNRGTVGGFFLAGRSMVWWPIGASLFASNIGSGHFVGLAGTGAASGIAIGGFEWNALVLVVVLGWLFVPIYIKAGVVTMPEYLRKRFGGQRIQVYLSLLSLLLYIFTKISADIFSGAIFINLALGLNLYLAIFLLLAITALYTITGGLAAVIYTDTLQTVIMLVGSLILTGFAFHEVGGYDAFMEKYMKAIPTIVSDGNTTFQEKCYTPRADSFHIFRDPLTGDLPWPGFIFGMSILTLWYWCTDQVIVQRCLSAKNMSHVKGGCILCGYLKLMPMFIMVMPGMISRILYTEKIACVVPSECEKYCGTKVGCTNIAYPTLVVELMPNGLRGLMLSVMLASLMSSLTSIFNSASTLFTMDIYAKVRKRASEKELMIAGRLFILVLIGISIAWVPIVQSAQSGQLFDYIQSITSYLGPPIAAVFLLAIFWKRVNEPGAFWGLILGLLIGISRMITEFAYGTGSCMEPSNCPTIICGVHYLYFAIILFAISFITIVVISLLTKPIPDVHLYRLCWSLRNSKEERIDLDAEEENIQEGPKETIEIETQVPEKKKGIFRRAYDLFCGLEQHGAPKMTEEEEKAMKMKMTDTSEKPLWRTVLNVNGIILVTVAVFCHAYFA
The experiment in a line: Inhibition of full length N-terminal HA-tagged human SGLT1 expressed in HEK293 cells assessed as inhibition of [14C]AMG uptake. It is filed as cell-based.

The species named for series [2] is Homo sapiens. The experiment in a line: Selectivity ratio of IC50 for full length N-terminal HA-tagged human SGLT1 expressed in HEK293 cells to IC50 for full length N-terminal HA-tagged human SGLT2 expressed in HEK293 cells. The class given is cell-based.
In series [3] the target is T2, Sodium/glucose cotransporter 2 (Homo sapiens, UniProt P31639).
T2 sequence (P31639 whole entry): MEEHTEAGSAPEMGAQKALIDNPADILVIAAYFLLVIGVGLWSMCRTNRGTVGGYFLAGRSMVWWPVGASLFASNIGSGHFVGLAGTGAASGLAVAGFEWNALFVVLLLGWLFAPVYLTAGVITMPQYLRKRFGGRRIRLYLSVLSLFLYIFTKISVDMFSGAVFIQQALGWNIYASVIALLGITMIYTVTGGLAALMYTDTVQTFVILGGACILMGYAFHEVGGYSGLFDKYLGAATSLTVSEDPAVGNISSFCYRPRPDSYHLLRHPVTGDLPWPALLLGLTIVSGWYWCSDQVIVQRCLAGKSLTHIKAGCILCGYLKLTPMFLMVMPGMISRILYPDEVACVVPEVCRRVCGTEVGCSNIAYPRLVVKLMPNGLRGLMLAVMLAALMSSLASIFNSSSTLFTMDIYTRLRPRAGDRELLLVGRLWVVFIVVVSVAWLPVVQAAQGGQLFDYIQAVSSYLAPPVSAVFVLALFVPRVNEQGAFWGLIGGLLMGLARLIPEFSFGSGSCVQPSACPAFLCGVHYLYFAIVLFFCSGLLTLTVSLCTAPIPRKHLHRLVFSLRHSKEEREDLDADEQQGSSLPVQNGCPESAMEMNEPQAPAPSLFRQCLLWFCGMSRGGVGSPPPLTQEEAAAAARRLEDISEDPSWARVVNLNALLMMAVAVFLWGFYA
Briefly: Inhibition of full length N-terminal HA-tagged human SGLT2 expressed in HEK293 cells assessed as inhibition of [14C]AMG uptake. The class given is cell-based.

Series [4] can be described thus: Oral bioavailability in C57BL/6J mouse at 10 mg/kg measured upto 24 hrs by LC-MS/MS analysis. The conditions noted are these: in vivo. The class given is ADME, organism-based.
A short description of series [5]: Half life in C57BL/6J mouse at 10 mg/kg,po measured upto 24 hrs by LC-MS/MS analysis. The class given is ADME, organism-based. The settings on record: in vivo.
Series [6] deals with T2, Sodium/glucose cotransporter 2. The experiment in a line: Inhibition of human SGLT2 expressed in xenopus oocytes assessed as inhibition of [14C]AMG uptake. It is filed as cell-based, Oocyte.
For series [7], the target named is T1, Sodium/glucose cotransporter 1. The experiment in a line: Inhibition of human SGLT1 expressed in CHO cells assessed as inhibition of [14C] labeled AMG accumulation incubated for 15 mins. The class given is cell-based.
The target in series [8] is T2, Sodium/glucose cotransporter 2. The experiment in a line: Inhibition of human SGLT2 expressed in CHO cells assessed as inhibition of [14C] labeled AMG accumulation incubated for 15 mins. It is filed as cell-based.
For series [9] the target is unchanged. Briefly: Inhibition of human SGLT2 expressed in CHO-K1 cells. It is filed as cell-based.
The target is the same in series [10]. The experiment in a line: Inhibition of human SGLT2.
The target is the same in series [11]. The experiment in a line: Inhibition of recombinant human SGLT2 expressed in COS-7 cells assessed as inhibition of [14C]AMG uptake. It is filed as cell-based.

As for `COc1ccc(Cc2cc([C@H]3O[C@@H](SC)[C@H](O)[C@@H](O)[C@@H]3O)ccc2Cl)cc1`, the IC50 in series [1] was found to be 15.9 nM; in [3], 2.1 nM. Besides, the Ratio IC50 in series [2] was determined as 7.6. Moreover, in [4], the bioavailability came to 87%. Besides, in series [5], the half-life was 7 h.
Take `Cc1cc(O)c(C(=O)CCc2ccc3occc3c2)c(O[C@@H]2O[C@H](CO)[C@@H](O)[C@H](O)[C@H]2O)c1`: the half-maximal effective concentration (EC50) in series [6] amounted to 5.2 nM.
Take `CC(=O)NNC[C@H]1O[C@@H](n2cc(Cc3ccc(C4CC4)cc3)c3c(Cl)cccc32)[C@H](O)[C@@H](O)[C@@H]1O`: the half-maximal effective concentration (EC50) in [7] amounted to 37 nM; in series [8], 33 nM.
In the case of `CONC[C@H]1O[C@@H](n2cc(Cc3ccc(C4CC4)cc3)c3c(Cl)cccc32)[C@H](O)[C@@H](O)[C@@H]1O`, in [8], the EC50 is 455 nM.
On the same count and under the same terms, to `CO/N=C/[C@H]1O[C@@H](n2cc(Cc3ccc(C4CC4)cc3)c3c(Cl)cccc32)[C@H](O)[C@@H](O)[C@@H]1O` belongs 286 nM.
Consider `CCOC(=O)OC[C@H]1O[C@@H](Oc2ccccc2Cc2ccc(OC)cc2)[C@H](O)[C@@H](O)[C@@H]1O` [SERGLIFLOZIN ETABONATE], for which the inhibition constant (Ki) in series [9] was 151 nM.
For `O=C(N/N=C/[C@H]1O[C@@H](n2cc(Cc3ccc(C4CC4)cc3)c3c(Cl)cccc32)[C@H](O)[C@@H](O)[C@@H]1O)c1ccccc1`, the half-maximal effective concentration (EC50) in series [8] amounted to 258 nM.
`CCOc1ccc(Cc2cc([C@H]3O[C@@H](SC)[C@H](O)[C@@H](O)[C@@H]3O)ccc2Cl)cc1`: the half-inhibitory concentration (IC50) in [10] came out at 1.8 nM.
For the compound `Cc1cc(OCCCNCCC(N)=O)ccc1Cc1c(O[C@@H]2O[C@H](CO)[C@@H](O)[C@H](O)[C@H]2O)n[nH]c1C(C)C`, the inhibitory constant (Ki) in series [11] was found to be 13600 nM.
For `COC(=O)NNC[C@H]1O[C@@H](n2cc(Cc3ccc(C4CC4)cc3)c3c(Cl)cccc32)[C@H](O)[C@@H](O)[C@@H]1O`, the EC50 in series [8] amounted to 63 nM.
Consider `O/N=C/[C@H]1O[C@@H](n2cc(Cc3ccc(C4CC4)cc3)c3c(Cl)cccc32)[C@H](O)[C@@H](O)[C@@H]1O`, for which the EC50 in [8] amounted to 212 nM.

A word on the IC50: it is the concentration that inhibits the measured activity by half. For orientation: bioavailability means dose-corrected exposure relative to a reference, in per cent. Read a low bioavailability as little systemic uptake. As a reminder, the half-life is the time needed for the level to fall by half in the phase considered. A lower half-life goes with fast loss. The term EC50 denotes the concentration at which the effect is half-maximal. The Ki is a measure of affinity in units of concentration, obtained from inhibition or displacement.
